{"source": "ChEMBL document CHEMBL4311992", "about": "“Discovery of 3-(((9H-purin-6-yl)amino)methyl)-4,6-dimethylpyridin-2(1H)-one derivatives as novel tubulin polymerization inhibitors for treatment of cancer” (Eur J Med Chem, 2019)", "key": {"[1]": {"molecular_target": "Tyrosine-protein kinase HCK (Homo sapiens) (UniProt P08631)", "experiment": "Inhibition of recombinant human HCK (230 to 497 residues) assessed as residual activity at 10 uM using Cdc2 peptide as substrate measured after 40 mins in presence of [gamma33P]ATP by scintillation counting method"}, "[2]": {"molecular_target": "Serine/threonine-protein kinase SIK1 (Homo sapiens) (UniProt P57059)", "sequence (P57059 whole entry, the tested form may be a part)": "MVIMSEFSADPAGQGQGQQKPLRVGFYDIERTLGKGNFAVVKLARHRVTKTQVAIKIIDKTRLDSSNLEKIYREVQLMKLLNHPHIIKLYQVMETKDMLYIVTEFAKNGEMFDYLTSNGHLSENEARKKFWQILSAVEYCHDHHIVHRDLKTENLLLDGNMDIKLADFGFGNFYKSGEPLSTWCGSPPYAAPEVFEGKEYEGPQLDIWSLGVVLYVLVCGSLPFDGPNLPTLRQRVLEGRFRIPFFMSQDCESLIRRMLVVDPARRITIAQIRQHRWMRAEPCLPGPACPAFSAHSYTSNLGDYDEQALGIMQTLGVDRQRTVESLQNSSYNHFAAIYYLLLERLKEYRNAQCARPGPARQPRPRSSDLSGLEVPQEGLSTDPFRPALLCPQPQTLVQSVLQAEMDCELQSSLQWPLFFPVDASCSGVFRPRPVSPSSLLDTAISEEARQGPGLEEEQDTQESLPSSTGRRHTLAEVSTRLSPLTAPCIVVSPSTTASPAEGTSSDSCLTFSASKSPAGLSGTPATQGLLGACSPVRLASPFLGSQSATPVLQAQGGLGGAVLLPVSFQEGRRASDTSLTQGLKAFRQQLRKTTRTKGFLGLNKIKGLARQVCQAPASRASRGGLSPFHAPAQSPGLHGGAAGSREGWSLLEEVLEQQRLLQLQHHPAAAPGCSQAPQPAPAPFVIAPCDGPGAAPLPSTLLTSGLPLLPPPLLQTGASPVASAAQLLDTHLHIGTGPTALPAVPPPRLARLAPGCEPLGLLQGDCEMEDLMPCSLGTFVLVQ", "experiment": "Inhibition of human SIK (1 to 281 residues) using AMARAASAAALARRR as substrate measured after 40 mins in presence of [gamma33P]ATP by scintillation counting method", "design": "scale not given: the % may be the effect or the level left"}, "[3]": {"experiment": "Toxicity in nude BALB/c mouse assessed as change in ALT level at 40 to 80 mg/kg, po once daily for 4 weeks measured post-last dose", "format": "organism-based", "settings": "in vivo, 672 h"}, "[4]": {"molecular_target": "Casein kinase 2 (Homo sapiens) (UniProt P67870+P68400+P19784+Q8NEV1)", "experiment": "Inhibition of human CK2 assessed as residual activity at 10 uM", "format": "protein assay"}, "[5]": {"species": "Homo sapiens", "experiment": "Inhibition of recombinant human DDR1 V833L mutant (492 to end residues) assessed as residual activity at 10 uM using KKKSPGEYVNIEFG as substrate measured after 40 mins in presence of [gamma33P]ATP by scintillation counting method"}, "[6]": {"molecular_target": "Insulin-like growth factor 1 receptor (Homo sapiens) (UniProt P08069)", "experiment": "Inhibition of recombinant human activated IGF1R (959 to end residues) assessed as residual activity at 10 uM using KKKSPGEYVNIEFG as substrate measured after 40 mins in presence of [gamma33P]ATP by scintillation counting method"}, "[7]": {"molecular_target": "Mitogen-activated protein kinase kinase kinase kinase 4 (Homo sapiens) (UniProt O95819)", "sequence (O95819 2-1239 limits assumed)": "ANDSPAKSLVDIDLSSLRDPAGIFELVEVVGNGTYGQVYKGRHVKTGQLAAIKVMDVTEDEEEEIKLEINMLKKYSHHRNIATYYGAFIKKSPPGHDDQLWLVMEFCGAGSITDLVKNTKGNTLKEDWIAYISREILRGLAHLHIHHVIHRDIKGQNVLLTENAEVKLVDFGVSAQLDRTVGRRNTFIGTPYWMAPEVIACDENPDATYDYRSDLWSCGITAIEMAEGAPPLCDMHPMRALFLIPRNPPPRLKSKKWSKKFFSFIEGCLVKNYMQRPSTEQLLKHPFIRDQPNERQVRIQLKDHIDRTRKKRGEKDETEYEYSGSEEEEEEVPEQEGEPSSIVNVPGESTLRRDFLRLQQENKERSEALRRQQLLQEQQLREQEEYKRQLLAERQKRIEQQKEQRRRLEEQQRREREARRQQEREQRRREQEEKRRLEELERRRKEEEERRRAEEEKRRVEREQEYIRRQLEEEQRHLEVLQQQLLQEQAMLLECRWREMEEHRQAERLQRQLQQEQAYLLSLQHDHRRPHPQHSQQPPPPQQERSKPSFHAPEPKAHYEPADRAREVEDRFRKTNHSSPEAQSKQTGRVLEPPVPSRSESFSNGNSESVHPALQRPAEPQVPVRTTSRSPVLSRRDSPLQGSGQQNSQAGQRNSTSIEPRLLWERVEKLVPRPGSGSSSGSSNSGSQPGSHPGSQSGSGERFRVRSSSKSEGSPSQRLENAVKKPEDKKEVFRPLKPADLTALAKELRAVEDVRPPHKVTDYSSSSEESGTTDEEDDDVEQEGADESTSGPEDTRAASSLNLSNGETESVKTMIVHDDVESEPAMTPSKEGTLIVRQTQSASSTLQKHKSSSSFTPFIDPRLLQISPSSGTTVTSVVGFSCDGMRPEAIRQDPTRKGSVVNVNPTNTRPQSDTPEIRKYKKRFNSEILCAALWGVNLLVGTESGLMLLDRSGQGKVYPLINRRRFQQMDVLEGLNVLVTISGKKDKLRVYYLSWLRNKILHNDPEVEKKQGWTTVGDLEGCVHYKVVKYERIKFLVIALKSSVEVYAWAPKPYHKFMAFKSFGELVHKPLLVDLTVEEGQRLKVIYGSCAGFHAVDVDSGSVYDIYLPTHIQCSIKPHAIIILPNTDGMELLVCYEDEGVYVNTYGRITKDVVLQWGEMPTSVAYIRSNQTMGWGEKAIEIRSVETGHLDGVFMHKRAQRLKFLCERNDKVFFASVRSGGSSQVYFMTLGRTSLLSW", "experiment": "Inhibition of recombinant human MAP4K4 (1 to 328 residues) assessed as residual activity at 10 uM using RLGRDKYKTLRQIRQ as substrate measured after 40 mins in presence of [gamma33P]ATP by scintillation counting method"}, "[8]": {"molecular_target": "Fibroblast growth factor receptor 2 (Homo sapiens) (UniProt P21802)", "experiment": "Inhibition of recombinant human FGFR2 (456 to 770 residues) assessed as residual activity at 10 uM using poly(Glu, Tyr) 4:1 as substrate measured after 40 mins in presence of [gamma33P]ATP by scintillation counting method"}, "[9]": {"molecular_target": "Cytoplasmic tyrosine-protein kinase BMX (Homo sapiens) (UniProt P51813)", "experiment": "Inhibition of full-length recombinant human BMX assessed as residual activity at 10 uM using poly(Glu, Tyr) 4:1 as substrate measured after 40 mins in presence of [gamma33P]ATP by scintillation counting method"}, "[10]": {"molecular_target": "Serine/threonine-protein kinase D3 (Homo sapiens) (UniProt O94806)", "experiment": "Inhibition of recombinant full-length human PKD3 assessed as residual activity at 10 uM using KKLRRTLSVA as substrate measured after 40 mins in presence of [gamma33P]ATP by scintillation counting method"}, "[11]": {"molecular_target": "Phosphatidylinositol 4-phosphate 5-kinase type-1 gamma (Homo sapiens) (UniProt O60331)", "sequence (O60331 whole entry)": "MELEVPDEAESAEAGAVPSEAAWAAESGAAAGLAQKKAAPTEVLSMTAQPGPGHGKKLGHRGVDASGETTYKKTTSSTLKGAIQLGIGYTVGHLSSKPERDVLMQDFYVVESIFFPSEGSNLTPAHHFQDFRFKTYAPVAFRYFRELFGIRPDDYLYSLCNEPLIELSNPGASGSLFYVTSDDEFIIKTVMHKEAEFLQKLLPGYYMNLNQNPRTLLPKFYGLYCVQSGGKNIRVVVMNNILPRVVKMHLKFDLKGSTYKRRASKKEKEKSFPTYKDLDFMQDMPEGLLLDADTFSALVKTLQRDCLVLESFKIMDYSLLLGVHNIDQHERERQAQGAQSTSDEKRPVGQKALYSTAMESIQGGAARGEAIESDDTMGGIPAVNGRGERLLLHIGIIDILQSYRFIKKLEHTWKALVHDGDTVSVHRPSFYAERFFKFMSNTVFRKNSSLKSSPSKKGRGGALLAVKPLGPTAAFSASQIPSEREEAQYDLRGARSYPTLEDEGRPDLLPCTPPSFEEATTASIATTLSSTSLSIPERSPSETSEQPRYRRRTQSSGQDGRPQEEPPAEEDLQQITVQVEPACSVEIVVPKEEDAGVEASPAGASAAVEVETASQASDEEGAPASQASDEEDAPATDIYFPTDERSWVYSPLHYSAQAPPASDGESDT", "experiment": "Inhibition of recombinant full-length human PIP5K1gamma assessed as residual activity at 10 uM using phosphatidylinositol 4-phosphate as substrate measured after 40 mins by HTRF assay"}, "[12]": {"test_system": "SW-620", "experiment": "Induction of cell cycle arrest in human SW620 cells assessed as accumulation at G2/M phase after 24 hrs by propidium iodide-staining based flow cytometry", "format": "functional"}, "[13]": {"molecular_target": "MAP/microtubule affinity-regulating kinase 3 (Homo sapiens) (UniProt P27448)", "experiment": "Inhibition of recombinant full-length human MARK3 assessed as residual activity at 10 uM using KKKVSRSGLYRSPSMPENLNRPR as substrate measured after 40 mins in presence of [gamma33P]ATP by scintillation counting method"}, "[14]": {"test_system": "Epidermal growth factor receptor (Homo sapiens), P00533 [L858R]", "experiment": "Inhibition of recombinant human EGFR L858R mutant (696 to end residues) assessed as residual activity at 10 uM using poly(Glu, Tyr) 4:1 as substrate measured after 40 mins in presence of [gamma33P]ATP by scintillation counting method"}, "[15]": {"molecular_target": "Dual specificity mitogen-activated protein kinase kinase 4 (Homo sapiens) (UniProt P45985)", "experiment": "Inhibition of recombinant human MKK4 (34 to end residues) assessed as residual activity at 10 uM using unactive JNK1a1 as substrate measured after 40 mins in presence of [gamma33P]ATP by scintillation counting method"}, "[16]": {"molecular_target": "Activated CDC42 kinase 1 (Homo sapiens) (UniProt Q07912)", "experiment": "Inhibition of recombinant human ACK1 (1 to 389 residues) assessed as residual activity at 10 uM using EFPIYDFLPAKKK as substrate measured after 40 mins in presence of [gamma33P]ATP by scintillation counting method"}, "[17]": {"molecular_target": "Fibroblast growth factor receptor 3 (Homo sapiens) (UniProt P22607)", "experiment": "Inhibition of recombinant human FGFR3 (447 to 761 residues) assessed as residual activity at 10 uM using poly(Glu, Tyr) 4:1 as substrate measured after 40 mins in presence of [gamma33P]ATP by scintillation counting method"}, "[18]": {"molecular_target": "Tribbles homolog 2 (Homo sapiens) (UniProt Q92519)", "experiment": "Inhibition of recombinant full-length human TRB2 assessed as residual activity at 10 uM using RRRFRPASPLRGPPK as substrate measured after 120 mins in presence of [gamma33P]ATP by scintillation counting method"}, "[19]": {"molecular_target": "Tyrosine-protein kinase Srms (Homo sapiens) (UniProt Q9H3Y6)", "sequence (Q9H3Y6 whole entry)": "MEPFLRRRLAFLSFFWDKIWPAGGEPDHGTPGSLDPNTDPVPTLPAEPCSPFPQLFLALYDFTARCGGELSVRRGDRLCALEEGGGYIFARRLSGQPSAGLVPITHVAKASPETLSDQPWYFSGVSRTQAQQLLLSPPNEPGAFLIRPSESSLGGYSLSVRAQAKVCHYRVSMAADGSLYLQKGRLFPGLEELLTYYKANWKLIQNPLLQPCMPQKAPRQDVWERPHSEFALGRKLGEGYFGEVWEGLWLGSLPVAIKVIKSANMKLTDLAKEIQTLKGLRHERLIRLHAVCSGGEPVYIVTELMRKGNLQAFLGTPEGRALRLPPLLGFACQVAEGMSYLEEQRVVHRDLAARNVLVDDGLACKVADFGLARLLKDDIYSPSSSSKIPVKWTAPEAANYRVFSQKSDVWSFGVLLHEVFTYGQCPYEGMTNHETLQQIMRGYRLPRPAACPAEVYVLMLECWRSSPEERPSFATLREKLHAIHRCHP", "experiment": "Inhibition of human SRMS assessed as residual activity at 10 uM by radiometric method"}, "[20]": {"molecular_target": "Serine/threonine-protein kinase TAO1 (Homo sapiens) (UniProt Q7L7X3)", "experiment": "Inhibition of human TAO1 (1 to 327 residues) using myelin basic protein as substrate measured after 40 mins in presence of [gamma33P]ATP by scintillation counting method", "design": "scale not given: the % may be the effect or the level left"}, "[21]": {"molecular_target": "Transcription initiation factor TFIID subunit 1-like (Homo sapiens) (UniProt Q8IZX4)", "sequence (Q8IZX4 whole entry)": "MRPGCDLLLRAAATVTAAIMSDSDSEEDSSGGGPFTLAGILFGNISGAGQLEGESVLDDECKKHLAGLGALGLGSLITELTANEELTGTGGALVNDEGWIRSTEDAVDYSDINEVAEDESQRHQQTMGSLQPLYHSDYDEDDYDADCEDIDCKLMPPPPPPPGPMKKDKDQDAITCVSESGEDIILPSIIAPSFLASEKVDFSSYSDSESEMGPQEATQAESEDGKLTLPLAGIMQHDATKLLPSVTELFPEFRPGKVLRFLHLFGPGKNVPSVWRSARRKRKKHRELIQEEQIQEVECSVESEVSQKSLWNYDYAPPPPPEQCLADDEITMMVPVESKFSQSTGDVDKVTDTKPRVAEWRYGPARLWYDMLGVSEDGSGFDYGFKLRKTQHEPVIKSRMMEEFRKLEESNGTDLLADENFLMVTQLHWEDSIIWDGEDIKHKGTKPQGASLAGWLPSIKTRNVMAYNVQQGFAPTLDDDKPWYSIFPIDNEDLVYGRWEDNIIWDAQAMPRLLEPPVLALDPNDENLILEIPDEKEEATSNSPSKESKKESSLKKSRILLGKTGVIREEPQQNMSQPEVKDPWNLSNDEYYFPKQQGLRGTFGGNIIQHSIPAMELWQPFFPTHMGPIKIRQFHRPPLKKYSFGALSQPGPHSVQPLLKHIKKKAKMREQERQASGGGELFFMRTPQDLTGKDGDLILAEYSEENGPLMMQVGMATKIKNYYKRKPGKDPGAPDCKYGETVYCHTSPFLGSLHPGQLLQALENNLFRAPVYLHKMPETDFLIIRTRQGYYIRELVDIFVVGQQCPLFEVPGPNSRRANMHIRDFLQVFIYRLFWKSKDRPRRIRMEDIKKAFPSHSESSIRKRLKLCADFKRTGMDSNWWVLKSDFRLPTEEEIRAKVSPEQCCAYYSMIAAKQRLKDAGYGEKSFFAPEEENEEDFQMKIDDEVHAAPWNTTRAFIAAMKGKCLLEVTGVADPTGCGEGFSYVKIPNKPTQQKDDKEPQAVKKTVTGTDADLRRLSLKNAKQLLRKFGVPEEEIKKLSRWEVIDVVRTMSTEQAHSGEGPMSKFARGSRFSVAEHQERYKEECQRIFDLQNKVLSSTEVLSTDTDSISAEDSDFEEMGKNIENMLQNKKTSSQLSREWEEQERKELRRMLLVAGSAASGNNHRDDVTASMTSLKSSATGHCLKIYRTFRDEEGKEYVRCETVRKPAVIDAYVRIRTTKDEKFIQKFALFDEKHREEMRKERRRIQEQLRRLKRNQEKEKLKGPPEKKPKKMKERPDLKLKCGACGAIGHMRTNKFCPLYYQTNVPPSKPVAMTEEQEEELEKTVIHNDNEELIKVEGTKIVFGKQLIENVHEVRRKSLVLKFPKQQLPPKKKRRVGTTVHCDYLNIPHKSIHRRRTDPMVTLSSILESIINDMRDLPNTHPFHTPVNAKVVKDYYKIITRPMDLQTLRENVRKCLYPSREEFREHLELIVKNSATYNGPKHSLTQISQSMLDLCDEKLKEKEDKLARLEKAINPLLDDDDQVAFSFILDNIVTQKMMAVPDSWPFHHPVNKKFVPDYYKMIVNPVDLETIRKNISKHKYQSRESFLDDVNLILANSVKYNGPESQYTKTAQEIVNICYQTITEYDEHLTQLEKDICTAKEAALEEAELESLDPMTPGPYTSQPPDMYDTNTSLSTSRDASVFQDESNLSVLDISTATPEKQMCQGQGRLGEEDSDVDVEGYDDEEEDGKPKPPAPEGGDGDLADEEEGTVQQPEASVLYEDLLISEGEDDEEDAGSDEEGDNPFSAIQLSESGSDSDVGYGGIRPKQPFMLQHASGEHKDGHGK", "experiment": "Inhibition of human TAF1L (1428 to end residues) using RRRFRPASPLRGPPK as substrate measured after 120 mins in presence of [gamma33P]ATP by scintillation counting method", "design": "scale not given: the % may be the effect or the level left"}, "[22]": {"molecular_target": "Serine/threonine-protein kinase WNK2 (Homo sapiens) (UniProt Q9Y3S1)", "experiment": "Inhibition of human WNK2 (166 to 489 residues) using myelin basic protein as substrate measured after 40 mins in presence of [gamma33P]ATP by scintillation counting method", "design": "scale not given: the % may be the effect or the level left"}, "[23]": {"test_system": "HCT-116", "experiment": "Induction of apoptosis in human HCT116 cells assessed as late apoptotic cells at 100 nM measured after 48 hrs by Annexin V-FITC/propidium iodide staining-based flow cytometry (reference value: 3.87%)", "format": "functional"}, "[24]": {"molecular_target": "CDK2/Cyclin A2 (Homo sapiens) (UniProt P24941+P20248)", "experiment": "Inhibition of recombinant full-length human CDK2/cyclinA assessed as residual activity at 10 uM using histone H1 as substrate measured after 40 mins in presence of [gamma33P]ATP by scintillation counting method", "format": "protein-complex assay"}, "[25]": {"test_system": "SW-620", "experiment": "Induction of apoptosis in human SW620 cells assessed as viable cells at 25 nM measured after 48 hrs by Annexin V-FITC/propidium iodide staining-based flow cytometry (reference value: 94.7%)", "format": "functional", "settings": "SW-620, 48 h, read-out: Activity"}}}
{"compound": "Cc1cc(C)c(CNc2nc(Cl)nc3c2ncn3C2CCCC2)c(=O)[nH]1", "values": [{"measurement": "Activity", "setting": "[1]", "value": 106, "unit": "%"}, {"measurement": "Activity", "setting": "[2]", "value": 104, "unit": "%"}, {"measurement": "Activity", "setting": "[3]", "value": "Non-Toxic"}, {"measurement": "Activity", "setting": "[4]", "value": 111, "unit": "%"}, {"measurement": "Activity", "setting": "[5]", "value": 114, "unit": "%"}, {"measurement": "Activity", "setting": "[6]", "value": 90.5, "unit": "%"}, {"measurement": "Activity", "setting": "[7]", "value": 114, "unit": "%"}, {"measurement": "Activity", "setting": "[8]", "value": 106, "unit": "%"}, {"measurement": "Activity", "setting": "[9]", "value": 132, "unit": "%"}, {"measurement": "Activity", "setting": "[10]", "value": 106, "unit": "%"}, {"measurement": "Activity", "setting": "[11]", "value": 99.5, "unit": "%"}, {"measurement": "Activity", "setting": "[12]", "value": "Dose-dependent effect"}, {"measurement": "Activity", "setting": "[13]", "value": 90, "unit": "%"}, {"measurement": "Activity", "setting": "[14]", "value": 104, "unit": "%"}, {"measurement": "Activity", "setting": "[15]", "value": 133, "unit": "%"}, {"measurement": "Activity", "setting": "[16]", "value": 118, "unit": "%"}, {"measurement": "Activity", "setting": "[17]", "value": 94.5, "unit": "%"}, {"measurement": "Activity", "setting": "[18]", "value": 90.5, "unit": "%"}, {"measurement": "Activity", "setting": "[19]", "value": 108, "unit": "%"}, {"measurement": "Activity", "setting": "[20]", "value": 93.5, "unit": "%"}, {"measurement": "Activity", "setting": "[21]", "value": 108, "unit": "%"}, {"measurement": "Activity", "setting": "[22]", "value": 110, "unit": "%"}, {"measurement": "Activity", "setting": "[23]", "value": 42.6, "unit": "%"}, {"measurement": "Activity", "setting": "[24]", "value": 110, "unit": "%"}, {"measurement": "viability at 0.025 µM", "setting": "[25]", "value": 61.8, "unit": "%"}]}
